Assay results taken from US7858621B2 (Amorepacific Corporation, priority 2006, dated 2010).
Where a name gives a salt, the structure may show the parent alone.

target: T1, vanilloid receptor (Rattus norvegicus, UniProt O35433); experiment: 45Ca influx test in cultured neonatal rat DRG neurons, inhibition of capsaicin response; format: cell-based; conditions: neonatal rat DRG neurons, capsaicin 0.5 μM, 45Ca influx; read-out: Antagonist Calcium Uptake Test (IC50)
T1 construct: DRG nerve cells from the primary culture of 2 days were equilibrated; endogenous in cells; host or cells: primary culture of dorsal root ganglion neurons from neonatal SD rats
In short: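 45Ca influx measured by scintillation counting of SDS-eluted neurons after 10 min at room temperature with test compound, 0.5 μM capsaicin (final) and 10 μCi/ml 45Ca in Ca/Mg-free HEPES-HBSS pH 7.4. Cells: primary DRG neurons from newborn SD rats, cultured 2 days with NGF and Ara-C.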

T1 sequence (O35433 whole entry): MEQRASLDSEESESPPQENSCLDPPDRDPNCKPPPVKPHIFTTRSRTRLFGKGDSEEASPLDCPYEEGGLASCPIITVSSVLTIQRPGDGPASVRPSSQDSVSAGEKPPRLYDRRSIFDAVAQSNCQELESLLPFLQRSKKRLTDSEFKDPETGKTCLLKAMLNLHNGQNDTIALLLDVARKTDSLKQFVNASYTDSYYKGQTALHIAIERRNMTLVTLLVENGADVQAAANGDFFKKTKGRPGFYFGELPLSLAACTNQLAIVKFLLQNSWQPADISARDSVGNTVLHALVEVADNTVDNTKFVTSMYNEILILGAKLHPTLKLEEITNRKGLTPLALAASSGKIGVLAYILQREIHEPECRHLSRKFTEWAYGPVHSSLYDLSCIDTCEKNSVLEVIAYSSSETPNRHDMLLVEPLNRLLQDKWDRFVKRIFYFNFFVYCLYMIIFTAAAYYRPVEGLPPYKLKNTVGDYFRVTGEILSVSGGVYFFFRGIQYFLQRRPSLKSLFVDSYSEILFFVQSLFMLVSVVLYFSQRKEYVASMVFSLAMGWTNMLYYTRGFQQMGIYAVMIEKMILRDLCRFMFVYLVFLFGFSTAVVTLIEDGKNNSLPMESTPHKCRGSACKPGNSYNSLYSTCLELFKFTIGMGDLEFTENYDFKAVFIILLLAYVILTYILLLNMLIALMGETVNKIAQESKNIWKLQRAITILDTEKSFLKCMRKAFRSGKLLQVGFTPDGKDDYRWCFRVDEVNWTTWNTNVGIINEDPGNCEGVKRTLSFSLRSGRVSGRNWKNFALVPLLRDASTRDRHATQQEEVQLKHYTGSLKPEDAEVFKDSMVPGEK

SMILES	IC50
C#Cc1cc(CNC(=O)/C=C/c2ccc(C(F)(F)F)nc2OCc2ccccc2)cc(F)c1NS(C)(=O)=O [Example 96, N-(3-Ethynyl-5-fluoro-4-methanesulfonylamino-benzyl)-3-(2-benzyloxy 6-trifluoromethyl-pyridin-3-yl)-acrylamide]	1700 nM
Cc1ccc(OCC(=O)NCc2ccc(NS(C)(=O)=O)c(F)c2)c(CO)n1 [Example 31, N-(3-Fluoro-4-methanesulfonylamino-benzyl)-2-(2-hydroxymethyl-6-methyl-pyridin-3-yloxy)-acetamide]	> 10000 nM
C#Cc1cc(CNC(=O)/C=C/c2ccc(C(F)(F)F)nc2N(CC)CC)cc(F)c1NS(C)(=O)=O [Example 38, 3-(2-Diethylamino-6-trifluoromethyl-pyridin-3-yl)-N-(3-ethynyl-5-fluoro-4-methanesulfonylamino-benzyl)-acrylamide]	220 nM
C#Cc1cc(CNC(=O)/C=C/c2ccc(C(F)(F)F)nc2OC2CCOC2)cc(F)c1NS(C)(=O)=O (stereo not shown) [Example 79, 3-[2-(Tetrahydro-furan-3-yloxy)-6-trifluoromethyl-pyridin-3-yl]-N-(3-ethynyl-5-fluoro-4-methanesulfonylamino-benzyl)-acrylamide]	430 nM
COc1nc(C(C)(C)C)ccc1/C=C/C(=O)NCc1ccc(NS(C)(=O)=O)c(F)c1 [Examples 9]	400 nM
CS(=O)(=O)Nc1ccc(CNC(=O)/C=C/c2ccc(C(F)(F)F)nc2NC2CCCC2)cc1F [Example 89, 3-(2-Cyclopentylamino-6-trifluoromethyl-pyridin-3-yl)-N-(3-fluoro-4-methanesulfonylamino-benzyl)-acrylamide]	280 nM
C#Cc1cc(CNC(=O)/C=C/c2ccc(C(F)(F)F)nc2N2CCC[C@H]2CO)cc(F)c1NS(C)(=O)=O (stereo in doubt) [Example 83, N-(3-Ethynyl-5-fluoro-4-methansulfonylamino-benzyl)-3-[2-(2-hydroxymethyl-pyrrolidin-1-yl)-6-trifluoromethyl-pyridin-3-yl]-acrylamide]	2100 nM
C#Cc1cc(CNC(=O)/C=C/c2ccc(C(F)(F)F)nc2N2CCNCC2)cc(F)c1NS(C)(=O)=O [Example 116, N-(3-Ethynyl-5-fluoro-4-methanesulfonylamino-benzyl)-3-(2-piperaz-1-yl-6-trifluoromethyl-pyridin-3-yl)-acrylamide, HCl salt]	4500 nM
CCCCc1nc(C(F)(F)F)ccc1/C=C/C(=O)NCc1ccc(NS(C)(=O)=O)c(C)c1 [Example 194, 3-(2-Butyl-6-trifluoromethyl-pyridin-3-yl)-N-(4-methanesulfonylamino-3-methyl-benzyl)-acrylamide]	76 nM
CC(C)(C)c1ccc(OCC(=O)NCc2ccc(NS(C)(=O)=O)c(F)c2)cn1 [Example 29, 2-(6-tert-Butyl-pyridin-3-yloxy)-N-(3-fluoro-4-methanesulfonylamino-benzyl)-acetamide]	> 10000 nM
Cc1cc(CNC(=O)/C=C/c2ccc(C(F)(F)F)nc2N2CCCCC2)ccc1NS(C)(=O)=O [Example 184, N-(4-Methanesulfonylamino-3-methyl-benzyl)-3-(2-piperid-1-yl-6-trifluoromethyl-pyridin-3-yl)-acrylamide]	230 nM
C#Cc1cc(CNC(=O)/C=C/c2ccc(C(F)(F)F)nc2CC(C)CC)cc(F)c1NS(C)(=O)=O (stereo not shown) [Example 152, N-(3-Ethynyl-5-fluoro-4-methanesulfonylamino-benzyl)-3-[2-(2-methyl-butyl)-6-trifluoromethyl-pyridin-3-yl]-acrylamide]	43 nM
C#Cc1cc(CNC(=O)/C=C/c2ccc(N3CCOCC3)nc2)cc(F)c1NS(C)(=O)=O [Examples 23]	> 10000 nM
CCCCc1nc(C(F)(F)F)ccc1/C=C/C(=O)NCc1cc(C)c(NS(C)(=O)=O)c(F)c1 [Example 192, 3-(2-Butyl-6-trifluoromethyl-pyridin-3-yl)-N-(3-fluoro-4-methanesulfonylamino-5-methyl-benzyl)-acrylamide]	90 nM
CCCCNc1nc(C(F)(F)F)ccc1/C=C/C(=O)NCc1cc(F)c(NS(C)(=O)=O)c(F)c1 [Example 202, N-(3,5-Difluoro-4-methanesulfonylamino-benzyl)-3-(2-butylamino-6-trifluoromethyl)-pyridin-3-yl-acrylamide]	35 nM
CC(C)CCOc1nc(C(F)(F)F)ccc1/C=C/C(=O)NCc1cc(F)c(NS(C)(=O)=O)c(C#N)c1 [Example 118, N-(3-Cyano-5-fluoro-4-methanesulfonylamino-benzyl)-3-[2-(3-methyl-butoxy)-6-trifluoromethyl-pyridin-3-yl]-acrylamide]	200 nM

More lines, now with the values ahead:

IC50	SMILES
400 nM	CCCCNc1nc(C(F)(F)F)ccc1/C=C/C(=O)NCc1ccc(NS(C)(=O)=O)c(F)c1 [Example 88, 3-(2-Butylamino-6-trifluoromethyl-pyridin-3-yl)-N-(3-fluoro-4-methanesulfonylamino-benzyl)-acrylamide]
120 nM	CC(C)Nc1nc(C(F)(F)F)ccc1/C=C/C(=O)NCc1ccc(NS(C)(=O)=O)c(F)c1 [Example 121, N-(3-Fluoro-4-methanesulfonylamino-benzyl)-3-(2-isopropylamino-6-trifluoromethyl-pyridin-3-yl)-acrylamide]
12 nM	CCCCc1nc(C(F)(F)F)ccc1/C=C/C(=O)N[C@H](C)c1cc(F)c(NS(C)(=O)=O)c(F)c1 [Example 228, (R)-3-(2-Butyl-6-trifluoromethyl-pyridin-3-yl)-N-[1-(3,5-difluoro-4-methanesulfonylamino-phenyl)-ethyl]-acrylamide]
15 nM	CCCNc1nc(C(F)(F)F)ccc1/C=C/C(=O)N[C@H](C)c1cc(F)c(NS(C)(=O)=O)c(F)c1 [Example 229, (R)—N-[1-(3,5-Difluoro-4-methanesulfonylamino-phenyl)-ethyl]-3-(2-propylamino-6-trifluoromethyl-pyridin-3-yl)-acrylamide]
270 nM	C[C@@H](NC(=O)/C=C/c1ccc(C(F)(F)F)nc1-c1cccc(F)c1)c1ccc(NS(C)(=O)=O)c(F)c1 [Example 181, (R)—N-[1-(3-Fluoro-4-methanesulfonylamino-phenyl)-ethyl]-3-[2-(3-fluoro-phenyl)-6-trifluoromethyl-pyridin-3-yl]-acrylamide]
960 nM	CCN(CC)c1nc(C(F)(F)F)ccc1/C=C/C(=O)NCc1ccc(NS(C)(=O)=O)c(F)c1 [Example 47, 3-(2-Diethylamino-6-trifluoromethyl-pyridin-3-yl)-N-(3-fluoro-4-methanesulfonylamino-benzyl)-acrylamide]
900 nM	CS(=O)(=O)Nc1c(F)cc(CNC(=O)/C=C/c2ccc(C(F)(F)F)nc2-c2cccc(F)c2)cc1C#N [Example 136, N-(3-Cyano-5-fluoro-4-methanesulfonylamino-benzyl)-3-[2-(3-fluoro-phenyl)-6-trifluoromethyl-pyridin-3-yl]-acrylamide]
9700 nM	CS(=O)(=O)Nc1ccc(CNC(=O)/C=C/c2ccc(C(F)(F)F)nc2Sc2ccccc2)cc1F [Example 140, N-(3-fluoro-4-methanesulfonylamino-benzyl)-3-(2-phenylthio-6-trifluoromethyl-pyridin-3-yl)-acrylamide]
410 nM	COC1CCN(c2nc(C(F)(F)F)ccc2C=CC(=O)NCc2ccc(NS(C)(=O)=O)c(F)c2)C1 (stereo not shown) [Example 90, N-(3-Fluoro-4-methanesulfonylamino-benzyl)-3-[2-(3-methoxy-pyrrolidin-1-yl)-6-trifluoromethyl-pyridin-3-yl]-acrylamide]
